Test results taken from patent US5021430A, “Certain N-substituted butyramide derivatives” (Ciba-Geigy Corporation, priority 1987, dated 1991).

Biological target: T1, enkephalinase (Rattus norvegicus, UniProt P07861)
T1 construct: synaptic membrane preparation from rat striatum; from tissue; host or cells: rat striatum, synaptic membrane preparation
T1 sequence (P07861 1-750): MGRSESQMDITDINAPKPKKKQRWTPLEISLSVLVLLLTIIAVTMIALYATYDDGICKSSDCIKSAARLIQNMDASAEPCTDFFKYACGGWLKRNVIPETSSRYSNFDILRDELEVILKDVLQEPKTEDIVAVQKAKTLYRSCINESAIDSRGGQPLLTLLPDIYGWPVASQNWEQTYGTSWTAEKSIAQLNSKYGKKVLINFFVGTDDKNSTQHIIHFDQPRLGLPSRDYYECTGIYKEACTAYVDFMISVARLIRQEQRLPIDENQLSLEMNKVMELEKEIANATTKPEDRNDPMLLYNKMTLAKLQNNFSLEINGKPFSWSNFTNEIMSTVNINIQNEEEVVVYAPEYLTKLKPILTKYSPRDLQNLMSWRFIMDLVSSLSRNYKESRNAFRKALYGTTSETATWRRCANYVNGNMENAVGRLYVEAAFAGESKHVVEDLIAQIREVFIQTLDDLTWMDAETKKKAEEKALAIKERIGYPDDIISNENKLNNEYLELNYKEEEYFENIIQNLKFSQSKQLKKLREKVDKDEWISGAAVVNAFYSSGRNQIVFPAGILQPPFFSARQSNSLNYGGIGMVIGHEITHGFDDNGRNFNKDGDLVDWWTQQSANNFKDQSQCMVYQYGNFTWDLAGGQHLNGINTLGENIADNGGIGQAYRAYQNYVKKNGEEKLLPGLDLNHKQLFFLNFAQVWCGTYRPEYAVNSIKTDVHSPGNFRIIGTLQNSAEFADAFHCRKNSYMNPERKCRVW
Test: enkephalinase inhibitory activity in vitro (inhibition of 3H-Tyr-gly-gly generation from 3H-Leu-enkephalin)
Assay type: biochemical
Details: rat striatum synaptic membrane preparation, pH 6.5, 3H-Leu-enkephalin, 15 minutes at 30° C., 10^-6 M Bestatin
Experimental: The enkephalinase inhibitory activity is determined in vitro by an adaptation of the method of Alstein et al. as described in Life Sciences 28, 185 (1981), as follows:
A mixture of a solution of the test compound in distilled water or distilled water and ethanol diluted with pH 6.5 buffer and of a synaptic membrane preparation from rat striatum is incubated at pH 6.5 with ^3 H-Leu-enkephalin for 15 minutes at 30° C., in the presence of 10^-6 M Bestatin (to inhibit aminopeptidase activity). The reaction is stopped by the addition of 30% acetic acid and the reaction product ^3 H-Tyr-gly-gly is separated from unreacted ^3 H-Leu-enkephalin on a Porapak O column followed by a Cu^++-chelex column. The ^3 H-Tyr-gly-gly is counted by liquid scintillation. The amount of ^3 H-Tyr-gly-gly generated in the presence of test compound as compared to control is then calculated. An IC50 value representing the concentration of test compound required for 50% inhibition of ^3 H-Tyr-gly-gly generation is then determined graphically.

Row | IC50 (unit inferred) [nM] | IC50 [nM] | SMILES
1 | ~4 |  | O=C(O)[C@H](Cc1ccccc1)C[C@@H](Cc1ccccc1)C(=O)N[C@@H](COCc1ccccc1)C(=O)O [N-[(S,S)-2,4-dibenzyl-4-carboxybutyryl]-O-benzyl-(L)-serine]
2 |  | ~5 | O=C(O)[C@H](Cc1ccccc1)C[C@@H](Cc1ccccc1)C(=O)N[C@@H](CCc1ccccc1)C(=O)O [N-[(S,S)-2,4-dibenzyl-4-carboxybutyryl]-(L)-homophenylalanine]
3 |  | ~6 | O=C(O)[C@H](Cc1ccccc1)C[C@@H](Cc1ccccc1)C(=O)N[C@@H](CSCc1ccccc1)C(=O)O [N-[(S,S)-2,4-dibenzyl-4-carboxybutyryl]-S-benzyl-(L)-cysteine]
